Reference: patent publication US6194383A, “Lipopeptides from actinoplanes sp. with pharmacological action, process for their production and the use thereof” (Hoechst Aktiengesellschaft, priority 1993, dated 2001)

Tests used:
Format in all cases: cell-based
[1] = test system: relevant organisms; assay: agar dilution test, MIC, in vitro activity (AB spectrum); conditions: Muller-Hinton agar, 37° C., 24 hours
Protocol: (§1) The sensitivity of relevant organisms to the A 1437 lipopeptides is determined by an agar dilution test. The agar used is Muller-Hinton agar to which, in the case of S. pyogenes and the Enterococci, 10% horse blood is added. The antibiotic-containing plates are inoculated using a multichannel inoculator (5×10^4 cfu/inoculation site of a stationary culture of the particular strain). The MIC values (minimum inhibitory concentration) are read off at 37° C. The MIC is defined as the concentration of the antibiotic at which no visible growth of the organisms is detectable after incubation for 24 hours. The amphomycin used as control was obtained from Boehringer Mannheim (Germany). Amphomycin can be obtained as fine chemical therefrom.

[2] = test system: Enterococcus faecium VR1; assay: agar dilution test, MIC, vancomycin-resistant strains; conditions: Muller-Hinton agar with 10% horse blood, 37° C., 24 hours
Protocol: as §1

[3] = test system: Enterococcus faecium VR2; assay: as above; conditions: Muller-Hinton agar with 10% horse blood, 37° C., 24 hours
Protocol: as §1

[4] = test system: Streptococcus pyogenes; assay: agar dilution test, MIC, vancomycin-resistant strains table; conditions: Muller-Hinton agar with 10% horse blood, 37° C., 24 hours
Protocol: as §1

[5] = 1st of 6 value columns, strain not given
[6] = 2nd of 6 value columns, strain head not printed
[7] = 3rd of 6 value columns, strain not given
[8] = 4th of 6 value columns, strain not given
[9] = 5th of 6 value columns, strain not given
[10] = 6th of 6 value columns, strain head not printed

Substance | MIC, in vitro activity (AB spectrum), concentration [1, 5] [µg/mL] | MIC, in vitro activity (AB spectrum), concentration [1, 6] [µg/mL] | MIC, in vitro activity (AB spectrum), concentration [1, 7] [µg/mL] | MIC, in vitro activity (AB spectrum), concentration [1, 8] [µg/mL] | MIC, in vitro activity (AB spectrum), concentration [1, 9] [µg/mL] | MIC, in vitro activity (AB spectrum), concentration [1, 10] [µg/mL] | MIC, in vitro activity (vancomycin-resistant strains), concentration [2] [µg/mL] | MIC, in vitro activity (vancomycin-resistant strains), concentration [3] [µg/mL] | MIC, in vitro activity (vancomycin-resistant strains), concentration [4] [µg/mL]
Amphomycin [reference compound] | 0.195 | 0.781 | 0.391 | 1.56 | 0.391 | 1.56 | 4 | 4 | 2
aiC13 -fatty acid-Asn-Dab-Pip-MeAsp-Asp-Gly-Asp-Gly-Dab-Val-Pro [A 1437 F] | 0.098 | 0.391 | 0.195 | 1.56 | 0.781 | 1.56 | 4 | 4 | 1
aiC15 -fatty acid-Asn-Dab-Pip-MeAsp-Asp-Gly-Asp-Gly-Dab-Val-Pro [A 1437 H] | 0.049 | 0.098 | 0.049 | 0.195 | 0.049 | 0.195 | 1 | 1 | 0.5
aiC15 -fatty acid-Asp-Dab-Pip-MeAsp-Asp-Gly-Asp-Gly-Dab-Val-Pro [A 1437 G] | 0.098 | 0.195 | 0.049 | 0.088 | 0.025 | 0.195 | 0.25 | 0.25 | 0.125
iC13 -fatty acid-Asp-Dab-Pip-MeAsp-Asp-Gly-Asp-Gly-Dab-Val-Pro [A 1437 A] | 0.391 | 0.781 | 0.391 | 1.56 | 0.391 | 3.13 | – | – | –
iC14 -fatty acid-Asn-Dab-Pip-MeAsp-Asp-Gly-Asp-Gly-Dab-Val-Pro [A 1437 D] | 0.049 | 0.195 | 0.049 | 0.781 | 0.391 | 0.781 | 2 | 2 | 1
iC14 -fatty acid-Asp-Dab-Pip-MeAsp-Asp-Gly-Asp-Gly-Dab-Val-Pro [A 1437 B] | 0.098 | 0.195 | 0.098 | 0.195 | 0.049 | 0.391 | 1 | 1 | 0.5
ic13 -fatty acid-Asn-Dab-Pip-MeAsp-Asp-Gly-Asp-Gly-Dab-Val-Pro [A 1437 C] | 0.195 | 0.781 | 0.391 | 3.13 | 0.781 | 3.13 | 4 | 4 | 4
